Experimental data as given in patent publication US20150344540A1, “NOVEL GLP-1 RECEPTOR AGONISTS WITH CHOLESTEROL EFFLUX ACTIVITY” (NOVO NORDISK A/S, priority 2012, published 2015).
Where two headings read alike, the source gives them in different places. Where a SMILES comes first, the peptide text is derived from it. Where no end group is shown, it is not given here. [ ]: non-standard residue; d: D form. Aib = CC(C)(N)C(=O)O

Legend:
[1] = biological target: human GLP-1 receptor (Homo sapiens, UniProt P43220); test: Functional GLP-1 receptor assay, in vitro potency (CRE luciferase; whole cells); type: cell-based; conditions: BHK cells expressing human GLP-1 receptor
human GLP-1 receptor (Homo sapiens, UniProt P43220), sequence (P43220 24-463): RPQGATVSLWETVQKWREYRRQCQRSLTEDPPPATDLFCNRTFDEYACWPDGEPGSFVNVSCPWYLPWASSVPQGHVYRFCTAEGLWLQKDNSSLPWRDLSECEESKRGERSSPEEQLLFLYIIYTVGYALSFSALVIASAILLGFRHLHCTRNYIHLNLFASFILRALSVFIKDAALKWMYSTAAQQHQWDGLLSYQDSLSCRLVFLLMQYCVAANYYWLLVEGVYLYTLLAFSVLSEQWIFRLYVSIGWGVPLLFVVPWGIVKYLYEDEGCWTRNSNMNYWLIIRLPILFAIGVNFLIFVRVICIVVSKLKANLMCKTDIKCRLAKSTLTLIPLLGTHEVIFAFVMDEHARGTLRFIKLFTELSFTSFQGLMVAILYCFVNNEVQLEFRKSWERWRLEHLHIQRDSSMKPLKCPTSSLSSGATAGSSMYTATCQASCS

[2] = biological target: human GLP-1 receptor (human, UniProt P43220); test: cell-based or functional assay
[3] = GLP1R CRE luc 1% HSA EC50 Mean Value, 1% HSA
[4] = 0% HSA, read-out: GLP1R CRE luc 0% HSA EC50 Mean Value

In the case of `CC[C@H](C)[C@H](NC(=O)[C@H](Cc1ccccc1)NC(=O)[C@H](CCC(=O)O)NC(=O)[C@H](CCCCN)NC(=O)[C@@H](NC(=O)[C@H](C)NC(=O)[C@H](CCC(=O)O)NC(=O)CNC(=O)[C@H](CCC(=O)O)NC(=O)[C@H](CC(C)C)NC(=O)[C@H](Cc1ccc(O)cc1)NC(=O)[C@H](CCC(=O)O)NC(=O)[C@@H](NC(=O)[C@@H](NC(=O)[C@H](CC(=O)O)NC(=O)[C@H](CC(N)=O)NC(=O)[C@@H](NC(=O)[C@H](Cc1ccc(O)cc1)NC(=O)[C@@H](NC(=O)CNC(=O)[C@H](CCC(=O)O)NC(=O)[C@H](C)NC(=O)[C@@H](N)Cc1c[nH]cn1)[C@@H](C)O)[C@@H](C)O)C(C)C)[C@@H](C)O)C(C)C)C(=O)N[C@@H](C)C(=O)N[C@@H](Cc1c[nH]c2ccccc12)C(=O)N[C@@H](CC(C)C)C(=O)N[C@H](C(=O)N[C@@H](CCC(=O)O)C(=O)N[C@@H](CCCCN)C(=O)NC(C)(C)C(=O)N[C@@H](CCCCN)C(=O)N[C@@H](CCC(=O)O)C(=O)N[C@@H](Cc1ccccc1)C(=O)N[C@@H](CC(C)C)C(N)=O)C(C)C` [Compound 13, [Tyr12,Asn14,Thr17,Glu18,Glu23,Val25,Glu34,Lys35,Aib36,Lys37]-GLP-1-(7-37)-peptidyl-Glu-Phe-Leu amide] (H-HAEGTYTNDVTEYLEGEAVKEFIAWLVEK[Aib]KEFL-NH2; N-terminus assumed), the EC50 [1, 3] is reported as 0.104 nM.

With `CC[C@H](C)[C@H](NC(=O)[C@H](Cc1ccccc1)NC(=O)[C@H](CCC(=O)O)NC(=O)[C@H](CCCCN)NC(=O)[C@@H](NC(=O)[C@H](C)NC(=O)[C@H](CCC(=O)O)NC(=O)CNC(=O)[C@H](CCC(=O)O)NC(=O)[C@H](Cc1ccc(O)cc1)NC(=O)[C@H](Cc1ccc(O)cc1)NC(=O)[C@H](CO)NC(=O)[C@H](CO)NC(=O)[C@@H](NC(=O)[C@H](CC(=O)O)NC(=O)[C@H](Cc1c[nH]cn1)NC(=O)[C@@H](NC(=O)[C@H](Cc1ccccc1)NC(=O)[C@@H](NC(=O)CNC(=O)[C@H](CCC(=O)O)NC(=O)[C@H](C)NC(=O)[C@@H](N)Cc1c[nH]cn1)[C@@H](C)O)[C@@H](C)O)C(C)C)C(C)C)C(=O)N[C@@H](C)C(=O)N[C@@H](Cc1c[nH]c2ccccc12)C(=O)N[C@@H](CC(C)C)C(=O)N[C@H](C(=O)N[C@@H](CCC(=O)O)C(=O)N[C@@H](CCCCN)C(=O)NC(C)(C)C(=O)N[C@@H](CCCCN)C(=O)N[C@@H](CCC(=O)O)C(=O)N[C@@H](Cc1ccccc1)C(=O)N[C@@H](CC(C)C)C(N)=O)C(C)C` [Compound 15, [His4,Tyr20,Glu23,Val25,Glu34,Lys35,Aib36,Lys37]-GLP-1-(7-37)-peptidyl-Glu-Phe-Leu amide] (H-HAEGTFTHDVSSYYEGEAVKEFIAWLVEK[Aib]KEFL-NH2; N-terminus assumed) the EC50 [1, 3] was 0.101 nM.

`CC[C@H](C)[C@H](NC(=O)[C@H](Cc1ccccc1)NC(=O)[C@H](CCC(=O)O)NC(=O)[C@H](CCCCN)NC(=O)[C@@H](NC(=O)[C@H](C)NC(=O)[C@H](CCC(=O)O)NC(=O)CNC(=O)[C@H](CCC(=O)O)NC(=O)[C@H](CC(C)C)NC(=O)[C@H](Cc1ccc(O)cc1)NC(=O)[C@H](CC(N)=O)NC(=O)[C@@H](NC(=O)[C@H](CCSC)NC(=O)[C@H](CC(=O)O)NC(=O)[C@H](CC(N)=O)NC(=O)[C@@H](NC(=O)[C@H](Cc1ccccc1)NC(=O)[C@@H](NC(=O)CNC(=O)[C@H](CCC(=O)O)NC(=O)[C@H](C)NC(=O)[C@@H](N)Cc1c[nH]cn1)[C@@H](C)O)[C@@H](C)O)[C@@H](C)O)C(C)C)C(=O)N[C@@H](C)C(=O)N[C@@H](Cc1c[nH]c2ccccc12)C(=O)N[C@@H](CC(C)C)C(=O)N[C@H](C(=O)N[C@@H](CCC(=O)O)C(=O)N[C@@H](CCCCN)C(=O)NC(C)(C)C(=O)N[C@@H](CCCCN)C(=O)N[C@@H](CCC(=O)O)C(=O)N[C@@H](Cc1ccccc1)C(=O)N[C@@H](CC(C)C)C(N)=O)C(C)C` [Compound 44, [Asn14,Met16,Thr17,Asn18,Glu23,Val25,Glu34,Lys35,Aib36,Lys37]-GLP-1-(7-37)-peptidyl-Glu-Phe-Leu amide] (H-HAEGTFTNDMTNYLEGEAVKEFIAWLVEK[Aib]KEFL-NH2; N-terminus assumed) gave an EC50 [1, 3] of 0.077 nM.

With `CC[C@H](C)[C@H](NC(=O)[C@H](Cc1ccccc1)NC(=O)[C@H](CCC(=O)O)NC(=O)[C@H](CCCCN)NC(=O)[C@H](C)NC(=O)[C@H](C)NC(=O)[C@H](CCCCN)NC(=O)[C@H](CCC(=O)O)NC(=O)[C@H](CCC(=O)O)NC(=O)[C@H](CC(C)C)NC(=O)[C@H](Cc1ccc(O)cc1)NC(=O)[C@H](CCCCN)NC(=O)[C@H](CO)NC(=O)[C@H](Cc1ccc(O)cc1)NC(=O)[C@H](CC(=O)O)NC(=O)[C@H](CO)NC(=O)[C@@H](NC(=O)[C@H](Cc1ccccc1)NC(=O)[C@@H](NC(=O)CNC(=O)[C@H](CCC(N)=O)NC(=O)[C@H](CO)NC(=O)[C@@H](N)Cc1c[nH]cn1)[C@@H](C)O)[C@@H](C)O)C(=O)N[C@@H](C)C(=O)N[C@@H](Cc1c[nH]c2ccccc12)C(=O)N[C@@H](CC(C)C)C(=O)N[C@@H](CC(C)C)C(=O)N[C@@H](CCC(=O)O)C(=O)N[C@@H](CCCCN)C(=O)NC(C)(C)C(=O)N[C@@H](CCCCN)C(=O)N[C@@H](CCC(=O)O)C(=O)N[C@@H](Cc1ccccc1)C(=O)N[C@@H](CC(C)C)C(N)=O` [Compound 57] (H-HSQGTFTSDYSKYLEEKAAKEFIAWLLEK[Aib]KEFL-NH2) the EC50 [1, 4] was 0.086 nM and the EC50 [1, 3] was 0.044 nM.

`CC[C@H](C)[C@H](NC(=O)[C@H](Cc1ccccc1)NC(=O)[C@H](CCC(=O)O)NC(=O)[C@H](CCCCN)NC(=O)[C@H](C)NC(=O)[C@H](CCCCN)NC(=O)[C@H](CCCCN)NC(=O)[C@H](CCC(=O)O)NC(=O)[C@H](CCC(=O)O)NC(=O)[C@H](CC(C)C)NC(=O)[C@H](Cc1ccc(O)cc1)NC(=O)[C@H](CCCCN)NC(=O)[C@H](CO)NC(=O)[C@H](Cc1ccc(O)cc1)NC(=O)[C@H](CC(=O)O)NC(=O)[C@H](CO)NC(=O)[C@@H](NC(=O)[C@H](Cc1ccccc1)NC(=O)[C@@H](NC(=O)CNC(=O)[C@H](CCC(N)=O)NC(=O)[C@H](CO)NC(=O)[C@@H](N)Cc1c[nH]cn1)[C@@H](C)O)[C@@H](C)O)C(=O)N[C@@H](C)C(=O)N[C@@H](Cc1c[nH]c2ccccc12)C(=O)N[C@@H](CC(C)C)C(=O)N[C@@H](CC(C)C)C(=O)N[C@@H](CCC(=O)O)C(=O)N[C@@H](CCCCN)C(=O)NC(C)(C)C(=O)N[C@@H](CCCCN)C(=O)N[C@@H](CCC(=O)O)C(=O)N[C@@H](Cc1ccccc1)C(=O)N[C@@H](CC(C)C)C(N)=O` [Compound 58] (H-HSQGTFTSDYSKYLEEKKAKEFIAWLLEK[Aib]KEFL-NH2) showed an EC50 [1, 4] of 1.17 nM and an EC50 [1, 3] of 0.588 nM.

Work on `CC(C)C[C@H](NC(=O)[C@H](Cc1ccccc1)NC(=O)[C@H](CCC(=O)O)NC(=O)[C@H](CCCCN)NC(=O)C(C)(C)NC(=O)[C@H](CCCCN)NC(=O)[C@H](CCC(=O)O)NC(=O)[C@H](CC(C)C)NC(=O)[C@H](CC(C)C)NC(=O)[C@H](Cc1c[nH]c2ccccc12)NC(=O)[C@H](CCC(N)=O)NC(=O)[C@@H](NC(=O)[C@H](Cc1ccccc1)NC(=O)[C@H](CCC(=O)O)NC(=O)[C@H](CCCNC(=N)N)NC(=O)[C@H](C)NC(=O)[C@H](C)NC(=O)[C@H](CCCCN)NC(=O)[C@H](CO)NC(=O)[C@H](CC(=O)O)NC(=O)[C@H](CC(C)C)NC(=O)[C@H](Cc1ccc(O)cc1)NC(=O)[C@H](CCCCN)NC(=O)[C@H](CO)NC(=O)[C@H](Cc1ccc(O)cc1)NC(=O)[C@H](CC(=O)O)NC(=O)[C@H](CO)NC(=O)[C@@H](NC(=O)[C@H](Cc1ccccc1)NC(=O)[C@@H](NC(=O)CNC(=O)[C@H](CCC(N)=O)NC(=O)[C@H](CO)NC(=O)[C@@H](N)Cc1c[nH]cn1)[C@@H](C)O)[C@@H](C)O)C(C)C)C(N)=O` [Compound 59] (H-HSQGTFTSDYSKYLDSKAAREFVQWLLEK[Aib]KEFL-NH2) yielded an EC50 [1, 4] of 0.434 nM and an EC50 [1, 3] of 0.198 nM.

“H-HAEGTFTSDVSSYLEGQAAKEFIAWLVEGVKEFLEK-OH [Compound 127, [Glu34,Val36,Lys37]-GLP-1-(7-37)-peptidyl-Glu-Phe-Leu-Glu-Lys]” was tested, and the EC50 [1, 3] was 0.023 nM.

B1: [Aib8,Glu23,Val25,Glu34,Lys35,Phe36,Lys37]-GLP-1-(7-37)-peptidyl-Glu-Ala-Phe amide (peptide)
peptide: H[Aib]EGTFTSDVSSYLEGEAVKEFIAWLVEKFKEAF-NH2
modifications: N-terminus assumed
SMILES: CC[C@H](C)[C@H](NC(=O)[C@H](Cc1ccccc1)NC(=O)[C@H](CCC(=O)O)NC(=O)[C@H](CCCCN)NC(=O)[C@@H](NC(=O)[C@H](C)NC(=O)[C@H](CCC(=O)O)NC(=O)CNC(=O)[C@H](CCC(=O)O)NC(=O)[C@H](CC(C)C)NC(=O)[C@H](Cc1ccc(O)cc1)NC(=O)[C@H](CO)NC(=O)[C@H](CO)NC(=O)[C@@H](NC(=O)[C@H](CC(=O)O)NC(=O)[C@H](CO)NC(=O)[C@@H](NC(=O)[C@H](Cc1ccccc1)NC(=O)[C@@H](NC(=O)CNC(=O)[C@H](CCC(=O)O)NC(=O)C(C)(C)NC(=O)[C@@H](N)Cc1c[nH]cn1)[C@@H](C)O)[C@@H](C)O)C(C)C)C(C)C)C(=O)N[C@@H](C)C(=O)N[C@@H](Cc1c[nH]c2ccccc12)C(=O)N[C@@H](CC(C)C)C(=O)N[C@H](C(=O)N[C@@H](CCC(=O)O)C(=O)N[C@@H](CCCCN)C(=O)N[C@@H](Cc1ccccc1)C(=O)N[C@@H](CCCCN)C(=O)N[C@@H](CCC(=O)O)C(=O)N[C@@H](C)C(=O)N[C@@H](Cc1ccccc1)C(N)=O)C(C)C
For B1, the “CRE luciferase EC50, 0% HSA” value [2] was 372 pM and the “CRE luciferase EC50, 1% HSA” value [2] was 115 pM.

B2: [Aib8,Glu34,Lys35,Aib36,Lys37]-GLP-1-(7-37)-peptidyl-Glu-Phe-Leu amide (peptide)
peptide: H[Aib]EGTFTSDVSSYLEGQAAKEFIAWLVEK[Aib]KEFL-NH2
modifications: N-terminus assumed
SMILES: CC[C@H](C)[C@H](NC(=O)[C@H](Cc1ccccc1)NC(=O)[C@H](CCC(=O)O)NC(=O)[C@H](CCCCN)NC(=O)[C@H](C)NC(=O)[C@H](C)NC(=O)[C@H](CCC(N)=O)NC(=O)CNC(=O)[C@H](CCC(=O)O)NC(=O)[C@H](CC(C)C)NC(=O)[C@H](Cc1ccc(O)cc1)NC(=O)[C@H](CO)NC(=O)[C@H](CO)NC(=O)[C@@H](NC(=O)[C@H](CC(=O)O)NC(=O)[C@H](CO)NC(=O)[C@@H](NC(=O)[C@H](Cc1ccccc1)NC(=O)[C@@H](NC(=O)CNC(=O)[C@H](CCC(=O)O)NC(=O)C(C)(C)NC(=O)[C@@H](N)Cc1c[nH]cn1)[C@@H](C)O)[C@@H](C)O)C(C)C)C(=O)N[C@@H](C)C(=O)N[C@@H](Cc1c[nH]c2ccccc12)C(=O)N[C@@H](CC(C)C)C(=O)N[C@H](C(=O)N[C@@H](CCC(=O)O)C(=O)N[C@@H](CCCCN)C(=O)NC(C)(C)C(=O)N[C@@H](CCCCN)C(=O)N[C@@H](CCC(=O)O)C(=O)N[C@@H](Cc1ccccc1)C(=O)N[C@@H](CC(C)C)C(N)=O)C(C)C
In the case of B2, the “CRE luciferase EC50, 0% HSA” value [2] is reported as 108 pM and the “CRE luciferase EC50, 1% HSA” value [2] is reported as 42 pM.
